Laboratory results taken from patent US20240368156A1, “2-AZABICYCLO[2.2.1]HEPTANE KRAS INHIBITORS” (INCYTE CORPORATION, priority 2023, published 2024).

Key:
KRAS G12V = KRAS G12V (Homo sapiens, UniProt P01116, G12V); experiment: GDP-GTP exchange assay (bodipy-GDP/GppNHp, SOS1), KRAS G12V; type: biochemical; conditions: 2.5 nM bodipy-loaded KRAS G12V, 3 h incubation after adding GppNHp-SOS1; for certain compounds the most potent isomer is quoted; read-out: KRAS_G12V exchange assay IC50
Experimental: (§1) The inhibitor potency of the exemplified compounds was determined in a fluorescence based guanine nucleotide exchange assay, which measures the exchange of bodipy-GDP (fluorescently labeled GDP) for GppNHp (Non-hydrolyzable GTP analog) to generate the active state of KRAS in the presence of SOS1 (guanine nucleotide exchange factor). Inhibitors were serially diluted in DMSO and a volume of 0.1 μL was transferred to the wells of a black low volume 384-well plate. 5 µL/well volume of bodipy-loaded KRAS G12D diluted to 2.5 nM in assay buffer (25 mM Hepes pH 7.5, 50 mM NaCl, 10 mM MgCl2 and 0.01% Brij-35) was added to the plate and pre-incubated with inhibitor for 4 h at r.t. Appropriate controls (enzyme with no inhibitor or with a G12D inhibitor) were included on the plate. The exchange was initiated by the addition of a 5 μL/well volume containing 1 mM GppNHp and 300 nM SOS1 in assay buffer. The 10 μL/well reaction concentration of the bodipy-loaded KRAS G12D, GppNHp, and SOS1 were 2.5 nM, 500 μM, and 150 nM, respectively. The reaction plates were incubated at r.t. for 2 h, a time estimated for complete GDP-GTP exchange in the absence of inhibitor. For the KRAS G12V mutant, similar guanine nucleotide exchange assays were used with 2.5 nM as final concentration for the bodipy loaded KRAS proteins and 3 h incubation after adding GppNHp-SOS1 mixture. A cyclic peptide described to selectively bind G12D mutant (Sakamoto et al., BBRC 484.3 (2017), 605-611) or internal compounds with confirmed binding were used as positive controls in the assay plates. Fluorescence intensities were measured on a PheraStar plate reader instrument (BMG Labtech) with excitation at 485 nm and emission at 520 nm.
(§2) Either GraphPad prism or Genedata Screener SmartFit was used to analyze the data. The IC50 values were derived by fitting the data to a four parameter logistic equation producing a sigmoidal dose-response curve with a variable Hill coefficient.
(§3) The symbol “†” indicates IC50≤100 nM, “††” indicates IC50>100 nM but ≤1 μM; and “†††” indicates IC50 is >1 μM but ≤5 μM, “††††” indicates IC50 is >5 µM but ≤10 μM. “NA” indicates IC50 not available.

KRAS G12D = KRAS G12D (Homo sapiens, UniProt P01116, G12D); experiment: GDP-GTP exchange assay (bodipy-GDP/GppNHp, SOS1), KRAS G12D; type: biochemical; conditions: 2.5 nM bodipy-loaded KRAS G12D, 4 h pre-incubation, 2 h reaction with GppNHp and SOS1; for certain compounds the most potent isomer is quoted; read-out: KRAS_G12D exchange assay IC50
Experimental: as §1, §2, §3

Chain of KRAS G12V (P01116 1-188 isoform P01116-2 G12V): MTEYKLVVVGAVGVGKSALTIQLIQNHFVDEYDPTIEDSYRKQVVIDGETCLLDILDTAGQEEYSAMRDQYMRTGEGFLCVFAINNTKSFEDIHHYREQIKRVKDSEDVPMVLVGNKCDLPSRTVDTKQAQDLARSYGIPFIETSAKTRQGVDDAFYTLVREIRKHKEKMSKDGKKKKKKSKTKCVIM
Chain of KRAS G12D (P01116 1-188 isoform P01116-2 G12D): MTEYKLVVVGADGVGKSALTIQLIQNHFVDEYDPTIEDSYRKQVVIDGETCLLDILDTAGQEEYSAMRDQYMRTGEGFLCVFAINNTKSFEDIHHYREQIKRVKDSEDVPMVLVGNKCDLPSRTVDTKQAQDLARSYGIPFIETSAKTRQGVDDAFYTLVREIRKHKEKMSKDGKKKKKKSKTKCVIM

Compound | IC50 (KRAS G12V) [nM] | IC50 (KRAS G12D) [nM]
Cc1nc2c(F)c(-c3cccc(Cl)c3Cl)c(CCC#N)cc2c2c1cc([C@H]1[C@H]3C[C@H](C[C@@H]3OCc3ccccc3)N1C(=O)C1CC1)n2C1[C@H]2CN[C@@H]1C2 (stereo partly drawn) [Example 29, 3-(2-((1R,3R,4R,5S)-5-(benzyloxy)-2-(cyclopropanecarbonyl)-2-azabicyclo[2.2.1]heptan-3-yl)-1-((1R,4R)-2-azabicyclo[2.1.1]hexan-5-yl)-7-(2,3-dichlorophenyl)-6-fluoro-4-methyl-1H-pyrrolo[3,2-c]quinolin-8-yl)propanenitrile] | ≤ 100 | ≤ 100
Cc1nc2c(F)c(-c3cccc(Cl)c3Cl)c(CCC#N)cc2c2c1cc([C@H]1[C@H]3C[C@H](C[C@@H]3Oc3cccnc3)N1C(=O)C1CC1)n2C1[C@H]2CN[C@@H]1C2 (stereo partly drawn) [Example 27, 3-(1-((1R,4R)-2-azabicyclo[2.1.1]hexan-5-yl)-2-((1R,3R,4R,5S)-2-(cyclopropanecarbonyl)-5-(pyridin-3-yloxy)-2-azabicyclo[2.2.1]heptan-3-yl)-7-(2,3-dichlorophenyl)-6-fluoro-4-methyl-1H-pyrrolo[3,2-c]quinolin-8-yl)propanenitrile] | ≤ 100 | ≤ 100
CC(C)(O)c1ccc(-c2nc3c(F)c(-c4cccc(Cl)c4Cl)c(CCC#N)cc3c3c2cc([C@H]2[C@@H]4CC[C@@H](C4)N2C(=O)C2CC2)n3[C@H]2[C@H]3CN[C@@H]2C3)cn1 [Example 13, 3-(1-((1R,4R,5S)-2-azabicyclo[2.1.1]hexan-5-yl)-2-((1S,3R,4R)-2-(cyclopropanecarbonyl)-2-azabicyclo[2.2.1]heptan-3-yl)-7-(2,3-dichlorophenyl)-6-fluoro-4-(6-(2-hydroxypropan-2-yl)pyridin-3-yl)-1H-pyrrolo[3,2-c]quinolin-8-yl)propanenitrile] | ≤ 100 | ≤ 100
Cc1nc2c(F)c(-c3cccc(Cl)c3Cl)c(CCC#N)cc2c2c1cc([C@H]1[C@H]3C[C@H](C[C@@H]3OC(F)(F)F)N1C(=O)C1(F)CC1)n2[C@H]1[C@H]2CN[C@@H]1C2 (atropisomer, axis not shown; (Ra)) [Example 42, 3-((Ra)-1-((1R,4R,5S)-2-azabicyclo[2.1.1]hexan-5-yl)-7-(2,3-dichlorophenyl)-6-fluoro-2-((1R,3R,4R,5S)-2-(1-fluorocyclopropane-1-carbonyl)-5-(trifluoromethoxy)-2-azabicyclo[2.2.1]heptan-3-yl)-4-methyl-1H-pyrrolo[3,2-c]quinolin-8-yl)propanenitrile] | ≤ 100 | ≤ 100
COC(=O)N1[C@@H]2C[C@@H]([C@@H](C(F)F)C2)[C@@H]1c1cc2c(C)nc3c(F)c(-c4cccc(Cl)c4Cl)c(CCC#N)cc3c2n1[C@H]1[C@H]2CN[C@@H]1C2 (atropisomer, axis not shown; (Ra)) [Example 43, Methyl (1R,3R,4S,5S)-3-((Ra)-1-((1R,4R,5S)-2-azabicyclo[2.1.1]hexan-5-yl)-8-(2-cyanoethyl)-7-(2,3-dichlorophenyl)-6-fluoro-4-methyl-1H-pyrrolo[3,2-c]quinolin-2-yl)-5-(difluoromethyl)-2-azabicyclo[2.2.1]heptane-2-carboxylate] | ≤ 100 | ≤ 100
Cc1nc2c(F)c(-c3cccc(Cl)c3Cl)c(CCC#N)cc2c2c1cc([C@H]1[C@H]3C[C@H]([C@@H]4C[C@@H]43)N1C(=O)C1CC1)n2[C@H]1[C@H]2CN[C@@H]1C2 (atropisomer, axis not shown; (Ra)) [Example 3, 3-((Ra)-1-((1R,4R,5S)-2-Azabicyclo[2.1.1]hexan-5-yl)-2-((1S,2S,4R,5R,7R)-6-(cyclopropanecarbonyl)-6-azatricyclo[3.2.1.0^2,4]octan-7-yl)-7-(2,3-dichlorophenyl)-6-fluoro-4-methyl-1H-pyrrolo[3,2-c]quinolin-8-yl)propanenitrile] | ≤ 100 | ≤ 100
Cc1nc2c(F)c(-c3cccc(Cl)c3Cl)c(CCC#N)cc2c2c1cc([C@H]1[C@H]3C[C@H](C[C@@H]3OC(F)F)N1C(=O)C1(F)CC1)n2[C@H]1[C@H]2CN[C@@H]1C2 [Example 35, 3-(1-((1R,4R,5S)-2-Azabicyclo[2.1.1]hexan-5-yl)-7-(2,3-dichlorophenyl)-2-((1R,3R,4R,5S)-5-(difluoromethoxy)-2-(1-fluorocyclopropane-1-carbonyl)-2-azabicyclo[2.2.1]heptan-3-yl)-6-fluoro-4-methyl-1H-pyrrolo[3,2-c]quinolin-8-yl)propanenitrile] |  | ≤ 100
CO[C@H]1C[C@H]2C[C@@H]1[C@H](c1cc3c(C)nc4c(F)c(-c5cccc(Cl)c5Cl)c(CCC#N)cc4c3n1[C@H]1[C@H]3CN[C@@H]1C3)N2C(=O)C1CC1 (atropisomer, axis not shown; (Ra)) [Example 1, 3-((Ra)-1-((1R,4R,5S)-2-Azabicyclo[2.1.1]hexan-5-yl)-2-((1R,3R,4R,5S)-2-(cyclopropanecarbonyl)-5-methoxy-2-azabicyclo[2.2.1]heptan-3-yl)-7-(2,3-dichlorophenyl)-6-fluoro-4-methyl-1H-pyrrolo[3,2-c]quinolin-8-yl)propanenitrile] |  | ≤ 100
Cc1nc2c(F)c(-c3cccc(Cl)c3Cl)c(CCC#N)cc2c2c1cc([C@H]1[C@H]3C[C@H](C[C@@H]3C)N1C(=O)C1CC1)n2C1[C@H]2CN[C@@H]1C2 (stereo partly drawn) [Example 19, 3-(1-((1R,4R)-2-azabicyclo[2.1.1]hexan-5-yl)-2-((1S,3R,4S,5S)-2-(cyclopropanecarbonyl)-5-methyl-2-azabicyclo[2.2.1]heptan-3-yl)-7-(2,3-dichlorophenyl)-6-fluoro-4-methyl-1H-pyrrolo[3,2-c]quinolin-8-yl)propanenitrile] | ≤ 100 | ≤ 100
Cc1nc2c(F)c(-c3cccc(Cl)c3Cl)c(CCC#N)cc2c2c1cc([C@H]1[C@H]3C[C@H](C[C@H]3O)N1C(=O)C1CC1)n2C1[C@H]2CN[C@@H]1C2 (stereo partly drawn) [Example 21, 3-(1-((1R,4R)-2-azabicyclo[2.1.1]hexan-5-yl)-2-((1R,3R,4R,5R)-2-(cyclopropanecarbonyl)-5-hydroxy-2-azabicyclo[2.2.1]heptan-3-yl)-7-(2,3-dichlorophenyl)-6-fluoro-4-methyl-1H-pyrrolo[3,2-c]quinolin-8-yl)propanenitrile] | 100 to 1000 | 100 to 1000
C[C@@H](O)c1nc2c(F)c(-c3cccc(Cl)c3Cl)c(CCC#N)cc2c2c1cc([C@H]1[C@H]3C[C@H](C[C@@H]3F)N1C(=O)C1(F)CC1)n2[C@H]1[C@H]2CN[C@@H]1C2 (single isomer, unassigned) [Example 8] | ≤ 100 | ≤ 100
C[C@@H](O)c1nc2c(F)c(-c3cccc(Cl)c3Cl)c(CCC#N)cc2c2c1cc([C@H]1[C@H]3C[C@H](C[C@H]3Cl)N1C(=O)C1(F)CC1)n2[C@H]1[C@H]2CN[C@@H]1C2 (atropisomer, axis not shown) [Example 33, 3-((R)-1-((1R,4R,5S)-2-azabicyclo[2.1.1]hexan-5-yl)-2-((1R,3R,4R,5R)-5-chloro-2-(1-fluorocyclopropane-1-carbonyl)-2-azabicyclo[2.2.1]heptan-3-yl)-7-(2,3-dichlorophenyl)-6-fluoro-4-((R)-1-hydroxyethyl)-1H-pyrrolo[3,2-c]quinolin-8-yl)propanenitrile] | ≤ 100 | ≤ 100
